{
  "source": "patent US11998005B2",
  "about": "“Herbicidal formulations comprising glyphosate and COTE-based adjuvants” (NOURYON CHEMICALS INTERNATIONAL B.V., priority 2018, dated 2024)",
  "tested_on": "wheat representing narrow leaf weeds",
  "assay": "Bioefficacy, greenhouse spray test with IPA glyphosate + adjuvant",
  "assay_type": "in vivo",
  "settings": "compared to untreated plant",
  "experimental": "All bioefficacy testing was done at University of Georgia's Agricultural Experiment Station in Griffin, Georgia Concentrates were first formulated by blending IPA glyphosate salt with the desired amount surfactant and water resulting in a 20 wt % ae and a 6.49% surfactant solution. Prior to spraying two sets of diluted solutions were prepared by dissolving 16 g of concentrates into 984 grams of tap water and a second set by dissolving 500 g of the above dilute solution into 500 g of tap water. […] All of the plants were placed in a temperature controlled greenhouse and measured for growth (or lack of) each week for a period of 4 weeks. The data is reported as % Growth Control compared to untreated plant. The higher the value the better the bioefficacy. When the last measurement was taken at 4 weeks the plants are cut at the roots and the “fresh” weight measured.\nTesting in the foregoing manner yielded the following results: • Plant Species—Wheat • IPA-glyphosate application rate—300 g a.e./H\n• Plant Species—Wheat • IPA-glyphosate application rate—600 g a.e./H",
  "data": [
    {"smiles": "O=C(O)CNCP(=O)(O)O", "note": "[IPA-Glyphosate only, N-phosphonomethylglycine]", "values": [
      {"measurement": "% Growth Control", "setting": "IPA-glyphosate application rate 300 g a.e./H", "value": 31, "unit": "%"},
      {"measurement": "% Growth Control", "setting": "IPA-glyphosate application rate 600 g a.e./H", "value": 72, "unit": "%"}
    ]}
  ]
}
